Measured values from patent US20260101901A1, “DELAYING BLOOM IN HORTICULTURAL CROPS USING JASMONIC ACID BIOSYNTHESIS INHIBITORS” (VIRGINIA TECH INTELLECTUAL PROPERTIES INC., priority 2022, published 2026).

How the values were obtained:
‘Redhaven’ peach = type: in vivo; conditions: antipyrine 50 mM, propyl gallate 15 mM, four weekly applications from swollen bud stage
Protocol: (§1) In this study, we investigated the influence of propyl gallate and Antipyrine on the flowering time of ‘Redhaven’ and ‘Sunhigh’ cultivars. Three adjacent trees were randomly chosen, each as a replicate, and subjected to treatments: propyl gallate (15 mM), antipyrine (50 mM), and an untreated control. Four applications of each treatment were administered weekly, commencing at the swollen bud stage, which are concurrent at 2059, 2167, 2356, and 3128 DGH, respectively, employing a hand sprayer with the volume of 2.5 L per tree. Regulaid, a non-ionic surfactant from Kalo Inc. (Overland Park, KS, United States) was mixed with all treatments and experiments at the rate of 250 ppm.
(§2) At the pink-bud stage, three-four branches from each treated and untreated (control) tree were randomly selected across the tree and flagged using colored ribbons. […] The progression of flower opening was recorded by periodically counting the number of open blossoms in each experiment. The number of open flowers (anthers visible) was counted every 1-3 days until all buds reached the full bloom stage (50% of flowers are fully open). The blooming rate at each time point was calculated as the ratio of open blossoms to the initial bud number per tree, and the flowering date (F50) for each treatment was determined when the blooming rate reached 50%. […]

‘Sunhigh’ peach = experiment: Exp. 5 (2023) field trial: propyl gallate and antipyrine, flowering time; type: in vivo; conditions: antipyrine 50 mM, propyl gallate 15 mM, four weekly applications from swollen bud stage
Protocol: as §1, §2

‘John Boy’ peach trees [1] = experiment: Exp. 4 (2022) field trial: late DIECA application at 2000 GDH, bloom time and fruit set; type: in vivo; conditions: DIECA 50 mM at 2000 GDH
Protocol: (§3) The field trials were taken place at the Alson H. Smith Jr. Agricultural Research and Extension Center (AREC), Winchester, VA, the United States (39°06′36.0′N 78°16′48.0′W). Experiments were conducted over two growing seasons (2021 and 2022) on 3-year-old ‘John Boy’ and 10-year-old ‘Redhaven’ peach trees; both are grafted on ‘Lovell’ rootstock.
(§4) Chilling and heat accumulation were computed from meteorological data obtained from each orchard. Data loggers (EasyLog, Lascar) were kept in enclosed wooden shelters 1.2 m above the ground and recorded temperatures at 10 min intervals. Chilling requirements were calculated using the chilling hours (CH) model (Weinberger, 1950), in which each hourly temperatures within the range of 0-7.2° C. were registered as 1 CH, and temperatures outside of this range were not considered. Starting at 500 CH, three one-year-old branches, each with at least 10 floral buds, were collected weekly from each treatment. […]
(§5) After completion of CR, heat requirements were recorded according to the growing degree hours (GDH) model proposed by Richardson et al. (1975). […] Heat requirements (HR) were calculated as the GDH accumulated from the date of endodormancy release (under growth chambers conditions) to the date 50% of buds were in full bloom, F50 (under field conditions). […]

[2] = test system: ginseng, wheat and tea plant (Camellia sinensis); conditions: DIECA application; cited from earlier work
‘John Boy’ peach trees [3] = experiment: Exp. 1 (2021) field trial: DIECA concentrations sprayed at 1000 GDH, bloom time, fruit set and size; type: in vivo; conditions: for Heat requirements / Flowering (F50) date / Days from endodormancy release to flowering (F50): sprayed at 1000 GDH, ‘John Boy’ 2021; for Flowering (F50) date: control 06 April; for Days from endodormancy release to flowering (F50): control 69 b
Protocol: as §3
(§6) Chilling and heat accumulation were computed from meteorological data obtained from each orchard. Data loggers (EasyLog, Lascar) were kept in enclosed wooden shelters 1.2 m above the ground and recorded temperatures at 10 min intervals. Chilling requirements were calculated using the chilling hours (CH) model (Weinberger, 1950), in which each hourly temperatures within the range of 0-7.2° C. were registered as 1 CH, and temperatures outside of this range were not considered. Starting at 500 CH, three one-year-old branches, each with at least 10 floral buds, were collected weekly from each treatment. After removal of the terminal buds, the branches were placed in a beaker containing a floral solution prepared with Floralife (Smithers-Oasis Co., Walterboro, SC, USA). The floral solution was replaced weekly and around 1 cm was trimmed from the basal end of each branch to eliminate potential infections. The branches were kept in a growth chamber with conditions favoring bud growth (photoperiod with fluorescent lamps at 135 μmol·m^−2·s^−1 of 16 h at 25° C., a dark period of 8 h at 20° C., and a constant relative humidity of 65%). The endodormancy release and CRs were considered fulfilled when 50% of the buds have reached the calyx green stage after 14 days in the growth chamber.
(§7) After completion of CR, heat requirements were recorded according to the growing degree hours (GDH) model proposed by Richardson et al. (1975). In this model, hourly temperatures less than 4.5° C. registered no GDH; temperatures in the interval of 4.5-25° C. were adjusted by subtracting 4.5° C., and temperatures greater than 25° C. were registered as 20.5 (25-4.5) GDH. Heat requirements (HR) were calculated as the GDH accumulated from the date of endodormancy release (under growth chambers conditions) to the date 50% of buds were in full bloom, F50 (under field conditions).
This trial was conducted on ‘John Boy’ peach trees. Three different concentrations (0.5 mM, 10 mM, and 25 mM) of DIECA (Sigma-Aldrich Co., St Louis, MO, USA) were sprayed on three groups of trees, each group is composed of three adjacent trees. Treatments and control (untreated) trees were arranged in a completely randomized design (CRD). At least one buffer tree was assigned between each treatment to avoid spray drift. Trees were sprayed on 3 Mar. 2021 at 1000 GDH at a spray volume of 0.3 L per tree, using a hand sprayer. Regulaid (250 ppm), a non-ionic surfactant from Kalo Inc. (Overland Park, KS, United States) was mixed with all treatments and experiments at the rate of 250 ppm.
(§8) At the pink-bud stage, three-four branches from each treated and untreated (control) tree were randomly selected across the tree and flagged using colored ribbons. The number of buds on selected branches (at least 80 bud/tree) was used as the initial bud count. The progression of flower opening was recorded by periodically counting the number of open blossoms in each experiment. The number of open flowers (anthers visible) was counted every 1-3 days until all buds reached the full bloom stage (50% of flowers are fully open). The blooming rate at each time point was calculated as the ratio of open blossoms to the initial bud number per tree, and the flowering date (F50) for each treatment was determined when the blooming rate reached 50%. The numbers of fruit on the marked branches were counted 2 and 4 and 8 weeks after full bloom. Percent fruit set was calculated as the number of fruits divided by the number of flowers times 100.

‘John Boy’ peach trees [4] = experiment: as above; type: in vivo; parameters: Delay of the flowering date (F50) vs control: dose or concentration left out as unconfirmed
‘Redhaven’ peach trees [5] = experiment: Exp. 2 (2021) field trial: DIECA application timing, bloom time; type: in vivo; conditions: DIECA 10 mM applied at 1000 GDH
Protocol: as §3, §4, §5

‘Redhaven’ peach trees [6] = experiment: Exp. 3 (2022) field trial: DIECA concentrations sprayed at 500 GDH, bloom time and fruit set; type: in vivo; conditions: for Heat requirements / Flowering (F50) date / Days from endodormancy release to flowering (F50): sprayed at 500 GDH, ‘Redhaven’ 2022; for Flowering (F50) date: control 01 April; for Days from endodormancy release to flowering (F50): control 72 c
Protocol: as §3, §6, §7
In this trial, we used peach ‘Redhaven’ trees to examine the effects of three different concentrations (12.5, 25 and 50 mM) of DIECA on blooming time. Three adjacent trees were assigned for each treatment. All treated and untreated (control) trees were distributed in the orchard according to the CRD experimental design. DIECA treatments were applied at 500 GDH at a spray volume of 1.8 L per tree, using a high-pressure tree sprayer.
as §8

[7] = test system: peach and other stone fruits; conditions: cited from earlier work

## Cc1cc(=O)n(-c2ccccc2)n1C [Antipyrine, antipyrine]
‘Redhaven’ peach
  Bloom delay compared to the control: two
‘Sunhigh’ peach
  Bloom delay compared to the control: four

## CCN(CC)C(=S)[S-].[Na+] [DIECA, sodium diethyldithiocarbamate]
‘John Boy’ peach trees [1]
  Flowering time vs control: No significant differences
[2]
  JA levels: substantially reduce JA levels
‘John Boy’ peach trees [3]; DIECA 0.5 mM
  Heat requirements: 5373 GDH
  Flowering (F50) date: 06 April
  Days from endodormancy release to flowering (F50): 69 b days
‘John Boy’ peach trees [3]; DIECA 10 mM
  Heat requirements: 5539 GDH
  Flowering (F50) date: 07 April
  Days from endodormancy release to flowering (F50): 70 b days
‘John Boy’ peach trees [3]; DIECA 25 mM (highest concentration), 1000 GDH, ‘John Boy’
  Delay in the blooming: significant delay in the blooming
‘John Boy’ peach trees [3]; DIECA 25 mM
  Heat requirements: 6048 GDH
  Flowering (F50) date: 08 April
  Days from endodormancy release to flowering (F50): 72 a days
‘John Boy’ peach trees [4]; DIECA, 1000 GDH, ‘John Boy’
  Delay of the flowering date (F50) vs control: three
‘Redhaven’ peach trees [5]
  Bloom progression compared to the control: slightly delayed bloom progression
‘Redhaven’ peach trees [5]; 2000 GDH or 1000+2000 GDH
  Bloom-delaying effect: None of the DIECA application timings showed a significant bloom-delaying effect
‘Redhaven’ peach trees [6]; DIECA 12.5 mM
  Heat requirements: 6090 GDH
  Flowering (F50) date: 04 April
  Days from endodormancy release to flowering (F50): 75 bc days
‘Redhaven’ peach trees [6]; DIECA 25 mM at 500 GDH
  Delay in bloom time compared to the untreated control: 3 days
‘Redhaven’ peach trees [6]; DIECA 25 mM
  Heat requirements: 6090 GDH
  Flowering (F50) date: 04 April
  Days from endodormancy release to flowering (F50): 75 b days
‘Redhaven’ peach trees [6]; DIECA 50 mM at 500 GDH
  Delay in bloom time compared to the untreated control: 6 days
‘Redhaven’ peach trees [6]; DIECA 50 mM
  Heat requirements: 6478 GDH
  Flowering (F50) date: 07 April
  Days from endodormancy release to flowering (F50): 78 a days
‘Redhaven’ peach trees [6]; all DIECA applications (12.5, 25, 50 mM) at 500 GDH
  Bloom delay: remarkable bloom delay
‘Redhaven’ peach trees [6]; high DIECA concentrations (>25 mM) at early ecodormancy (~500 GDH)
  Bloom delay in peach: 3 to 6 days

## CCN(CC)C(=S)[S][Na] [DIECA, sodium diethyldithiocarbamate]
‘John Boy’ peach trees [1]; 2 and 4 WAFB
  Fruit set (%) vs control: no significant differences
‘John Boy’ peach trees [3]; DIECA 0.5, 10, 25 mM, 6 WAFB
  Fruit size vs control: No significant differences
‘John Boy’ peach trees [4]; DIECA 0.5, 10, 25 mM, 3 and 6 WAFB
  Fruit set (%) vs control: No significant differences
‘Redhaven’ peach trees [6]; DIECA 12.5, 25, 50 mM at 500 GDH, 2 and 4 WAFB
  Fruit set (%) vs control: did not show significant differences

## O=P(O)(O)CCCl [ET, 2-chloroethylphosphonic acid]
[7]; high concentration application
  Detrimental effects: gummosis, abortion of floral buds and dieback of the branches
[7]; high concentration, applied in the fall
  Bloom delay: more than two weeks

## CCCOC(=O)c1cc(O)c(O)c(O)c1 [propyl gallate, n-propyl gallate]
‘Redhaven’ peach
  Bloom delay compared to the control: no significant impact
‘Sunhigh’ peach
  Bloom delay compared to the control: single
